In US4327097A, “Novel penicillins” (Toyama Chemical Co., Ltd., priority 1974, dated 1982):
Values after ≈ are worked out from the molar mass of the structure shown.

Key:
Proteus vulgaris = assay: MIC against clinical isolates; format: cell-based; settings: Table 5-6, clinical isolate; unit assumed
Proteus morganii = assay: MIC against clinical isolates; format: cell-based; settings: Table 5-6, clinical isolate; unit assumed
Pseudomonas aeruginosa = assay: MIC against clinical isolates; format: cell-based; settings: unit assumed; for MIC Pseudomonas neruginosa S-1 / MIC Pseudomonas neruginosa S-2 / MIC Pseudomonas neruginosa S-3 / MIC Pseudomonas neruginosa S-4: Table 5-4, clinical isolate
Proteus vulgaris 3027 = assay: MIC, plate method, standard strains; format: cell-based; settings: Table 3, standard strain; unit assumed
How it was run: (§1)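 Plates of Heart infusion agar (pH 7.4) containing compound dilutions; 10^4-cell inoculum, from 10^6 cells/ml; lowest concentration preventing growth reported.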

Klebsiella pneumoniae [1] = assay: MIC, plate method, standard strains; format: cell-based; settings: Table 3, standard strain; unit assumed
How it was run: as §1

[2] = tested on: Pseudomonas aeruginosa I.F.O.; assay: MIC, plate method, standard strains; format: cell-based; settings: Table 3, standard strain; unit assumed
How it was run: as §1

Escherichia coli NIHJ = assay: MIC, plate method, standard strains; format: cell-based; settings: Table 3, standard strain; unit assumed
How it was run: as §1

[3] = tested on: Staphylococcus aureus 209p; assay: MIC, plate method, standard strains; format: cell-based; settings: Table 3, standard strain, Heart infusion agar pH 7.4; unit assumed
How it was run: as §1

Escherichia coli = assay: MIC against clinical isolates; format: cell-based; settings: Table 5-2, clinical isolate; unit assumed
Salmonella typhi-murium = assay: MIC against clinical isolates; format: cell-based; settings: Table 5-5, clinical isolate; unit assumed
Klebsiella pneumoniae [4] = assay: MIC against clinical isolates; format: cell-based; settings: Table 5-4, clinical isolate; unit assumed
[5] = tested on: β-lactamase, Pseudomonas aeruginosa GN 238; assay: Resistant activity against β-lactamase, iodometric assay; format: biochemical; settings: β-lactamase from Pseudomonas aeruginosa GN 238; Potassium Penicillin G = 100
Procedure: (3) Resistant activity against β-lactamase, Pseudomonas aerugionsa GN 238:
The resistant activity of each compound against β-lactamase was measured in the manner described below.
β-Lactamase was prepared from Pseudomonas aeruginosa GN 238. This microorganism was cultured in 100 ml of a medium containing 2 g of yeast extract, 10 g of polypeptone, 2 g of glucose, 7 g of disodium hydrogen phosphate, 2 g of potassium dihydrogen phosphate, 1.2 g of ammonium sulfate and 0.4 g of magnesium sulfate, per liter, in a 500-ml Erlenmeyer flask for 6 hrs. at 37° C. with shaking. The resulting cells were collected by centrifugation (5,000 r.p.m.×10 min.), washed three times with 0.1 M phosphate buffer (pH 7.0). Subsequently, the cells were subjected to sonication (20 KHz, 20 min.) and then centrifuged at 15,000 r.p.m. for 60 min. By using the supernatant of enzyme fluid, the resistance of each compound against β-lactamase was determined by the iodometric assay method. Each numeral shown in Table 7 is a relative activity value calculated by assuming as 100 the activity of the control Potassium Penicillin G.

Shigella sonnei = assay: MIC against clinical isolates; format: cell-based; settings: Table 5-5, clinical isolate; unit assumed
Procedure: (§2) The minimum inhibitory concentration (MIC) was determined by the plate method disclosed in "Chemotherapy" (Japan), Vol. 16, (1968), pages 98-99. The culture medium used was a Heart infusion agar (pH 7.4). The number of the cells per plate used in the inoculum was 10^4 (10^6 cells/ml).
(§3) MIC was determined in the same manner as in the preceding paragraph (1).

Shigella flexneri = assay: MIC against clinical isolates; format: cell-based; settings: Table 5-5, clinical isolate; unit assumed
Procedure: as §2, §3

Proteus mirabilis = assay: MIC against clinical isolates; format: cell-based; settings: Table 5-6, clinical isolate; unit assumed
Staphylococcus aureus = assay: MIC against clinical isolates; format: cell-based; settings: Table 5-1, clinical isolate; unit assumed
Proteus rettgeri = assay: MIC against clinical isolates; format: cell-based; settings: Table 5-6, clinical isolate; unit assumed

## CCCCCCN1CCN(C(=O)NC(C(=O)NC2C(=O)N3C2SC(C)(C)C3C(=O)O)c2ccccc2)C(=O)C1=O (single isomer, unassigned) [Compound 46]
Proteus vulgaris
  MIC Proteus vulgaris: < 0.4 µg/mL
Proteus morganii
  MIC Proteus morganii: < 0.4 µg/mL
Pseudomonas aeruginosa; Table 5-3, clinical isolate, strain number not given
  MIC Pseudomonas aeruginosa GN: 12.5 µg/mL (≈ 21.8 µM)
Pseudomonas aeruginosa; Table 5-3, clinical isolate
  MIC Pseudomonas aeruginosa GN 82: 6.25 µg/mL (≈ 10.9 µM)
  MIC Pseudomonas aeruginosa GN 163: 6.25 µg/mL (≈ 10.9 µM)
  MIC Pseudomonas aeruginosa GN 221: 12.5 µg/mL (≈ 21.8 µM)
  MIC Pseudomonas aeruginosa GN 1035: 50 µg/mL (≈ 87.2 µM)
  MIC Pseudomonas aeruginosa GN 1091: 12.5 µg/mL (≈ 21.8 µM)
  MIC Pseudomonas aeruginosa GN 2565: 12.5 µg/mL (≈ 21.8 µM)
  MIC Pseudomonas aeruginosa GN 2987: 6.25 µg/mL (≈ 10.9 µM)
Pseudomonas aeruginosa
  MIC Pseudomonas neruginosa S-1: 50 µg/mL (≈ 87.2 µM)
  MIC Pseudomonas neruginosa S-2: 50 µg/mL (≈ 87.2 µM)
  MIC Pseudomonas neruginosa S-3: 50 µg/mL (≈ 87.2 µM)
  MIC Pseudomonas neruginosa S-4: 50 µg/mL (≈ 87.2 µM)
Proteus vulgaris 3027
  MIC Proteus vulgaris 3027: 0.4 µg/mL (≈ 0.697 µM)
Klebsiella pneumoniae [1]
  MIC Klebsiella pneumoniae: 0.4 µg/mL (≈ 0.697 µM)
[2]
  MIC Pseudomonas aeruginosa I.F.C: 6.25 µg/mL (≈ 10.9 µM)
Escherichia coli NIHJ
  MIC Esche--richin coil NIHJ: < 0.1 µg/mL
[3]
  MIC Staphylococcus aureus 209p: 0.2 µg/mL (≈ 0.349 µM)
Escherichia coli
  MIC Escherichia coli GN 3435: < 0.4 µg/mL
  MIC Escherichia coli GN 3465: 6.25 µg/mL (≈ 10.9 µM)
  MIC Escherichia coli GN 3611: > 200 µg/mL
  MIC Escherichia coli K-3: 50 µg/mL (≈ 87.2 µM)
  MIC Escherichia coli K-4: < 0.4 µg/mL
Salmonella typhi-murium
  MIC Salmonella typhi-murium SL 858: < 0.4 µg/mL
  MIC Salmonella typhi-murium SL 2136: 50 µg/mL (≈ 87.2 µM)
Klebsiella pneumoniae [4]
  MIC Klebsiella pneumoniae GN 3850: 1.57 µg/mL (≈ 2.74 µM)
  MIC Klebsiella pneumoniae GN 4081: 12.5 µg/mL (≈ 21.8 µM)
  MIC Klebsiella pneumoniae GN 4117: 12.5 µg/mL (≈ 21.8 µM)
[5]
  Relative activity (%), resistant activity against β-lactamase: 12%
Shigella sonnei
  MIC Shigella sonnei JS 11232: 12.5 µg/mL (≈ 21.8 µM)
  MIC Shigella sonnei JS 11755: 0.79 µg/mL (≈ 1.38 µM)
Shigella flexneri
  MIC Shigella flexneri JS 11215: 6.25 µg/mL (≈ 10.9 µM)
  MIC Shigella flexneri JS 11839: 0.79 µg/mL (≈ 1.38 µM)
Proteus mirabilis
  MIC Proteus mirabilis: < 0.4 µg/mL
Staphylococcus aureus
  MIC Staphylococcus aureus F-1: 6.25 µg/mL (≈ 10.9 µM)
  MIC Staphylococcus aureus F-2: 1.57 µg/mL (≈ 2.74 µM)
  MIC Staphylococcus aureus F-4: 6.25 µg/mL (≈ 10.9 µM)
  MIC Staphylococcus aureus F-5: > 200 µg/mL
  MIC Staphylococcus aureus MS 8588: 1.57 µg/mL (≈ 2.74 µM)
  MIC Staphylococcus aureus MS 8619: < 0.4 µg/mL
  MIC Staphylococcus aureus MS 8684: 1.57 µg/mL (≈ 2.74 µM)
  MIC Staphylococcus aureus MS 8713: 6.25 µg/mL (≈ 10.9 µM)

## CCCCCCCCN1CCN(C(=O)NC(C(=O)NC2C(=O)N3C2SC(C)(C)C3C(=O)O)c2ccccc2)C(=O)C1=O (single isomer, unassigned) [Compound No. 47]
Proteus vulgaris
  MIC Proteus vulgaris: < 0.4 µg/mL
Proteus morganii
  MIC Proteus morganii: < 0.4 µg/mL
Pseudomonas aeruginosa; Table 5-3, clinical isolate
  MIC Pseudomonas aeruginosa GN 376: 50 µg/mL (≈ 83.1 µM)
  MIC Pseudomonas aeruginosa GN 383: 50 µg/mL (≈ 83.1 µM)
Pseudomonas aeruginosa
  MIC Pseudomonas neruginosa S-1: 50 µg/mL (≈ 83.1 µM)
  MIC Pseudomonas neruginosa S-2: 50 µg/mL (≈ 83.1 µM)
  MIC Pseudomonas neruginosa S-3: 50 µg/mL (≈ 83.1 µM)
  MIC Pseudomonas neruginosa S-4: 50 µg/mL (≈ 83.1 µM)
Proteus vulgaris 3027
  MIC Proteus vulgaris 3027: < 1.57 µg/mL
Klebsiella pneumoniae [1]
  MIC Klebsiella pneumoniae: < 1.57 µg/mL
[2]
  MIC Pseudomonas aeruginosa I.F.C: 6.25 µg/mL (≈ 10.4 µM)
Escherichia coli NIHJ
  MIC Esche--richin coil NIHJ: < 1.57 µg/mL
[3]
  MIC Staphylococcus aureus 209p: < 1.57 µg/mL
Escherichia coli
  MIC Escherichia coli GN 3452: 1.57 µg/mL (≈ 2.61 µM)
  MIC Escherichia coli GN 3465: 6.25 µg/mL (≈ 10.4 µM)
  MIC Escherichia coli GN 3481: 1.57 µg/mL (≈ 2.61 µM)
  MIC Escherichia coli GN 3611: > 200 µg/mL
  MIC Escherichia coli K-1: 1.57 µg/mL (≈ 2.61 µM)
  MIC Escherichia coli K-2: 1.57 µg/mL (≈ 2.61 µM)
  MIC Escherichia coli K-3: 100 µg/mL (≈ 166 µM)
Salmonella typhi-murium
  MIC Salmonella typhi-murium SL 858: < 0.4 µg/mL
  MIC Salmonella typhi-murium SL 2136: 50 µg/mL (≈ 83.1 µM)
Klebsiella pneumoniae [4]
  MIC Klebsiella pneumoniae GN 917: 1.57 µg/mL (≈ 2.61 µM)
  MIC Klebsiella pneumoniae GN 3850: 3.13 µg/mL (≈ 5.2 µM)
[5]
  Relative activity (%), resistant activity against β-lactamase: 1%
Shigella sonnei
  MIC Shigella sonnei JS 11232: 6.25 µg/mL (≈ 10.4 µM)
  MIC Shigella sonnei JS 11755: 0.79 µg/mL (≈ 1.31 µM)
Shigella flexneri
  MIC Shigella flexneri JS 11215: 6.25 µg/mL (≈ 10.4 µM)
  MIC Shigella flexneri JS 11839: 1.57 µg/mL (≈ 2.61 µM)
Proteus mirabilis
  MIC Proteus mirabilis: < 0.4 µg/mL
Staphylococcus aureus
  MIC Staphylococcus aureus F-1: 6.25 µg/mL (≈ 10.4 µM)
  MIC Staphylococcus aureus F-2: 1.57 µg/mL (≈ 2.61 µM)
  MIC Staphylococcus aureus F-3: 1.57 µg/mL (≈ 2.61 µM)
  MIC Staphylococcus aureus F-5: > 200 µg/mL
  MIC Staphylococcus aureus MS 8588: 3.13 µg/mL (≈ 5.2 µM)
  MIC Staphylococcus aureus MS 8596: 3.13 µg/mL (≈ 5.2 µM)
  MIC Staphylococcus aureus MS 8619: < 0.4 µg/mL
  MIC Staphylococcus aureus MS 8684: 3.13 µg/mL (≈ 5.2 µM)
  MIC Staphylococcus aureus MS 8713: 6.25 µg/mL (≈ 10.4 µM)

## CCCCCCCCN1CCN(C(=O)N[C@@H](C(=O)N[C@@H]2C(=O)N3[C@@H]2SC(C)(C)[C@@H]3C(=O)O)c2ccccc2)C(=O)C1 [Compound 16]
Pseudomonas aeruginosa; Table 5-3, clinical isolate
  MIC Pseudomonas aeruginosa GN 82: 6.25 µg/mL (≈ 10.6 µM)
  MIC Pseudomonas aeruginosa GN 2987: 3.13 µg/mL (≈ 5.33 µM)
Proteus rettgeri
  MIC Proteus rettgeri: 6.25 µg/mL (≈ 10.6 µM)
Proteus vulgaris 3027
  MIC Proteus vulgaris 3027: < 1.57 µg/mL
Klebsiella pneumoniae [1]
  MIC Klebsiella pneumoniae: 1.57 µg/mL (≈ 2.67 µM)
Escherichia coli NIHJ
  MIC Esche--richin coil NIHJ: < 1.57 µg/mL
[3]
  MIC Staphylococcus aureus 209p: < 1.57 µg/mL
Escherichia coli
  MIC Escherichia coli GN 3435: 1.57 µg/mL (≈ 2.67 µM)
  MIC Escherichia coli GN 3452: 1.57 µg/mL (≈ 2.67 µM)
  MIC Escherichia coli GN 3481: 3.13 µg/mL (≈ 5.33 µM)
  MIC Escherichia coli K-1: 1.57 µg/mL (≈ 2.67 µM)
  MIC Escherichia coli K-2: 3.13 µg/mL (≈ 5.33 µM)
  MIC Escherichia coli K-4: 3.13 µg/mL (≈ 5.33 µM)
Klebsiella pneumoniae [4]
  MIC Klebsiella pneumoniae GN 3850: 3.13 µg/mL (≈ 5.33 µM)
Shigella sonnei
  MIC Shigella sonnei JS 11232: 6.25 µg/mL (≈ 10.6 µM)
  MIC Shigella sonnei JS 11755: 1.57 µg/mL (≈ 2.67 µM)
Shigella flexneri
  MIC Shigella flexneri JS 11215: 6.25 µg/mL (≈ 10.6 µM)
  MIC Shigella flexneri JS 11839: 0.79 µg/mL (≈ 1.34 µM)
Staphylococcus aureus
  MIC Staphylococcus aureus F-1: 6.25 µg/mL (≈ 10.6 µM)
  MIC Staphylococcus aureus F-4: 6.25 µg/mL (≈ 10.6 µM)
  MIC Staphylococcus aureus MS 8588: 3.13 µg/mL (≈ 5.33 µM)
  MIC Staphylococcus aureus MS 8596: 3.13 µg/mL (≈ 5.33 µM)
  MIC Staphylococcus aureus MS 8684: 3.13 µg/mL (≈ 5.33 µM)
  MIC Staphylococcus aureus MS 8713: 3.13 µg/mL (≈ 5.33 µM)
